Results from publication PMC8762706, “Design of Coibamide A Mimetics with Improved Cellular Bioactivity” (ACS Medicinal Chemistry Letters, 2021).
Where a SMILES comes first, the peptide text is derived from it. Bridges are numbered along the chain shown (N, C = ends). [ ]: non-standard residue; d: D form. The star is where a group is joined. Phe(4-tBu) = CC(C)(C)c1ccc(C[C@H](N)C(=O)O)cc1; 1Nal = N[C@@H](Cc1cccc2ccccc12)C(=O)O; NMe2Val = CC(C)[C@@H](C(=O)*)N(C)C; NMeLys(Me) = CNCCCC[C@H](NC)C(=O)O; NMeI = CC[C@H](C)[C@H](NC)C(=O)O; NMeL = CN[C@@H](CC(C)C)C(=O)O; NMeOrn = CN[C@@H](CCCN)C(=O)O; dHiv = CC(C)[C@@H](O)C(=O)O; NMeA = CN[C@@H](C)C(=O)O; dNMeA = CN[C@H](C)C(=O)O; CF3 = FC(F)(F)*; tBu = CC(C)(C)*

Test system: A549 cells
Assay: Growth inhibition assay (MTS) in A549 cells
Format: cell-based
Details: for IC50: read-out: IC50 (concentration for 50% growth inhibition of A549 cells), MTS assay, 72 h treatment, 0.5% DMSO, absorbance 490 nm, n = 3
Procedure: Growth Inhibition AssayS3
A549 cells were cultured in Dulbecco’s modified Eagle’s medium (DMEM; Sigma) supplemented with 10% (v/v) fetal bovine serum at 37 °C in a 5% CO2-incubator. Growth inhibition assays using A549 cells were performed in 96-well plates (BD Falcon). A549 cells were seeded at 1000 cells/well in 90 μL of culture media, respectively, and were cultured for 24 h. Chemical compounds in DMSO were diluted 50-fold with the culture medium in advance. 30 μL of the chemical diluents were added.
The final volume of DMSO in the medium was equal to 0.5% (v/v). The cells under chemical treatment were incubated for a further 72 h. The wells in the plates were washed twice with the cultured medium without phenol-red. After 1-hour incubation with 100 μL of the medium, the cell culture in each well was supplemented with 20 μL of the MTS reagent (Promega), followed by incubation for additional 40 min. Absorbance at 490 nm of each well was measured using a Wallac 1420 ARVO SX multilabel counter (Perkin Elmer). Three experiments were performed per condition and the averages of inhibition rates in each condition were evaluated to determine IC50 values using the GraphPad Prism software.

Row | SMILES | IC50 [nM] | fold decrease in cytotoxicity compared with peptide 2a (ratio of IC50 values to 2a)
1 | CC[C@H](C)[C@H]1C(=O)N[C@@H](C)C(=O)N(C)[C@@H](CC(C)C)C(=O)N[C@@H](Cc2ccc(C(C)(C)C)cc2)C(=O)N(C)CCCC[C@H](N(C)C(=O)[C@H](CC(C)C)N(C)C(=O)[C@H](C)N(C)C(=O)[C@H](OC(=O)[C@H](C(C)C)N(C)C)C(C)C)C(=O)N(C)[C@@H](C)C(=O)N1C [10g] (NMe2Val-[dHiv][NMeA][NMeL][NMeLys(Me)][NMeA][NMeI]A[NMeL][Phe(4-tBu)]; lactam 4-C) | 610 ± 210 | 
2 | CC[C@H](C)[C@H]1C(=O)N[C@@H](C)C(=O)N(C)[C@@H](CC(C)C)C(=O)N[C@@H](Cc2ccc(OC)cc2)C(=O)N(C)CCCC[C@H](N(C)C(=O)[C@H](CC(C)C)N(C)C(=O)[C@H](C)N(C)C(=O)[C@H](OC(=O)[C@H](C(C)C)N(C)C)C(C)C)C(=O)N(C)[C@H](C)C(=O)N1C [9a] (NMe2Val-[dHiv][NMeA][NMeL][NMeLys(Me)][dNMeA][NMeI]A[NMeL]Y(Me); lactam 4-C) | > 10000 | 
3 | CC[C@H](C)[C@H]1C(=O)N[C@@H](C)C(=O)N(C)[C@@H](CC(C)C)C(=O)N[C@@H](Cc2ccc(OC(F)(F)F)cc2)C(=O)N(C)CCCC[C@H](N(C)C(=O)[C@H](CC(C)C)N(C)C(=O)[C@H](C)N(C)C(=O)[C@H](OC(=O)[C@H](C(C)C)N(C)C)C(C)C)C(=O)N(C)[C@@H](C)C(=O)N1C [10i] (NMe2Val-[dHiv][NMeA][NMeL][NMeLys(Me)][NMeA][NMeI]A[NMeL]Y(CF3); lactam 4-C) | 320 ± 30 | 
4 | CC[C@H](C)[C@H]1C(=O)N[C@@H](C)C(=O)N(C)[C@@H](CC(C)C)C(=O)N[C@@H](Cc2ccc(OC)cc2)C(=O)NCCC[C@H](N(C)C(=O)[C@H](CC(C)C)N(C)C(=O)[C@H](C)N(C)C(=O)[C@H](OC(=O)[C@H](C(C)C)N(C)C)C(C)C)C(=O)N(C)[C@@H](C)C(=O)N1C [2g] (NMe2Val-[dHiv][NMeA][NMeL][NMeOrn][NMeA][NMeI]A[NMeL]Y(Me); lactam 4-C) | > 10000 | 
5 | CC[C@H](C)[C@H]1C(=O)N[C@@H](C)C(=O)N(C)[C@@H](CC(C)C)C(=O)N[C@@H](Cc2cccc3ccccc23)C(=O)N(C)CCCC[C@H](N(C)C(=O)[C@H](CC(C)C)N(C)C(=O)[C@H](C)N(C)C(=O)[C@H](OC(=O)[C@H](C(C)C)N(C)C)C(C)C)C(=O)N(C)[C@@H](C)C(=O)N1C [10p] (NMe2Val-[dHiv][NMeA][NMeL][NMeLys(Me)][NMeA][NMeI]A[NMeL][1Nal]; lactam 4-C) | 4800 ± 500 | 
6 | CC[C@H](C)[C@H]1C(=O)N[C@@H](C)C(=O)N(C)[C@@H](CC(C)C)C(=O)N[C@@H](Cc2ccc(OC)cc2)C(=O)N(C)CCC[C@@H](N(C)C(=O)[C@H](CC(C)C)N(C)C(=O)[C@H](C)N(C)C(=O)[C@H](OC(=O)[C@H](C(C)C)N(C)C)C(C)C)C(=O)N(C)[C@@H](C)C(=O)N1C [2d] | > 10000 | 
7 | CC[C@H](C)[C@H]1C(=O)N[C@H](C)C(=O)N(C)[C@@H](CC(C)C)C(=O)N[C@@H](Cc2ccc(OC)cc2)C(=O)N(C)CCCC[C@H](N(C)C(=O)[C@H](CC(C)C)N(C)C(=O)[C@H](C)N(C)C(=O)[C@H](OC(=O)[C@H](C(C)C)N(C)C)C(C)C)C(=O)N(C)[C@@H](C)C(=O)N1C [9c] (NMe2Val-[dHiv][NMeA][NMeL][NMeLys(Me)][NMeA][NMeI][dA][NMeL]Y(Me); lactam 4-C) | > 10000 | 
8 | CC[C@H](C)[C@H]1C(=O)N[C@@H](C)C(=O)N(C)[C@@H](CC(C)C)C(=O)N[C@@H](Cc2ccc(OC(C)(C)C)cc2)C(=O)N(C)CCCC[C@H](N(C)C(=O)[C@H](CC(C)C)N(C)C(=O)[C@H](C)N(C)C(=O)[C@H](OC(=O)[C@H](C(C)C)N(C)C)C(C)C)C(=O)N(C)[C@@H](C)C(=O)N1C [10h] (NMe2Val-[dHiv][NMeA][NMeL][NMeLys(Me)][NMeA][NMeI]A[NMeL]Y(tBu); lactam 4-C) | 1000 ± 100 | 
9 | CC[C@H](C)[C@@H]1NC(=O)[C@H](C)N(C)C(=O)[C@@H](N(C)C(=O)[C@H](CC(C)C)N(C)C(=O)[C@H](C)N(C)C(=O)[C@H](OC(=O)[C@H](C(C)C)N(C)C)C(C)C)CCCCN(C)C(=O)[C@H](Cc2ccc(OC)cc2)NC(=O)[C@H](CC(C)C)N(C)C(=O)[C@H](C)NC1=O [8e] (NMe2Val-[dHiv][NMeA][NMeL][NMeLys(Me)][NMeA]IA[NMeL]Y(Me); lactam 4-C) |  | nine-fold or more lower
